Source: ChEMBL document CHEMBL1201862, “PubChem BioAssay data set” (2004)
The source made the active and inactive calls.

Tests used:
[1] = NIH-3T3 fibroblast cytotoxicity, dose response, cytotoxicity control, cell-based, fluorescence, Alamar Blue, secondary assay (AID 2327); assay type: functional;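 also: NIH-3T3 mouse fibroblasts cultured with fluconazole at 8 µg/mL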
[2] = C. albicans growth with fluconazole, confirmation, fluorescence, retest (AID 2467); assay type: functional, cell-based
[3] = A High Throughput Confirmatory Assay used to Identify Novel Compounds that Inhibit Mycobacterium Tuberculosis in the absence of Glycerol.; assay type: functional
[4] = biological target: T1, Rac GTPase-activating protein 1 (Homo sapiens, UniProt Q9H0H5); assay: MgcRacGAP GTPase-activating activity inhibitors, confirmation, biochemical, ADP Hunter fluorescence, primary and confirmatory (AID 624330); assay type: functional
T1 sequence (Q9H0H5 whole entry): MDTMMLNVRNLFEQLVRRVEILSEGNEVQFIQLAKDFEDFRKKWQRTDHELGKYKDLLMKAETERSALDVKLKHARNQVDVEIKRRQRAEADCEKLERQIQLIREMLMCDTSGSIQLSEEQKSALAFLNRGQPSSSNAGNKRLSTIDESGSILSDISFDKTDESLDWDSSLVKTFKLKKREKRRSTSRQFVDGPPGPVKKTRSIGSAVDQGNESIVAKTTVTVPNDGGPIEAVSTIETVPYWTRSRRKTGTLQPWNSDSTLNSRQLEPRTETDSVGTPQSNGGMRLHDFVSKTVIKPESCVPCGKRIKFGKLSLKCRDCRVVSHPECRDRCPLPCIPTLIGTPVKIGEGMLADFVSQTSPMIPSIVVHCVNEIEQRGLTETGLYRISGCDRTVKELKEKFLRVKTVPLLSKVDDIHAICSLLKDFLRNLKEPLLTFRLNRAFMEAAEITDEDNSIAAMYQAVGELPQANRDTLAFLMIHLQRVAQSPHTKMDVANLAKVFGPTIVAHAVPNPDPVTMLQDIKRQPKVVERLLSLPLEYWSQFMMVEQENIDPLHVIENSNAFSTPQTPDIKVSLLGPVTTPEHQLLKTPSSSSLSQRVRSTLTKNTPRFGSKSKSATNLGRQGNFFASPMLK

[5] = biological target: Heat shock protein HSP 90-alpha (Homo sapiens, UniProt P07900); assay type: functional, organism-based
[6] = biological target: T2, Microphthalmia-associated transcription factor (Homo sapiens, UniProt O75030); assay: TRPM1 promoter luciferase signal decrease, dose response, MITF inhibitor project, cell-based, SK-MEL-5, cherry-picked, set 3 (AID 493073); assay type: functional
T2 sequence (O75030 whole entry): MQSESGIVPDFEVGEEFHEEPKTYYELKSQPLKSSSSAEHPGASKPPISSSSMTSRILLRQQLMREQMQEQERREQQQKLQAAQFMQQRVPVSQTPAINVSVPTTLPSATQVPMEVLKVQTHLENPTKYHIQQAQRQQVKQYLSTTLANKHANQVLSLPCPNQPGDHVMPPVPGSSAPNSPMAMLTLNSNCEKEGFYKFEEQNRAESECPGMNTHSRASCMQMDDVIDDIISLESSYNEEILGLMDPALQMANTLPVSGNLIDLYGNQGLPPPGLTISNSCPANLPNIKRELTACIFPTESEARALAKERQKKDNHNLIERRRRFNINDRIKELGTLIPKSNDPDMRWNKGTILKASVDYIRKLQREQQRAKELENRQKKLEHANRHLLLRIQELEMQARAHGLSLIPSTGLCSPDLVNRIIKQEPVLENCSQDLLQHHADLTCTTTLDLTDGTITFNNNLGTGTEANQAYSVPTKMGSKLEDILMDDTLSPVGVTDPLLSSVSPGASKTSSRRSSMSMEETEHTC

[7] = biological target: T3, Apoptotic protease-activating factor 1 (Homo sapiens, UniProt O14727); assay type: functional
T3 sequence (O14727 whole entry): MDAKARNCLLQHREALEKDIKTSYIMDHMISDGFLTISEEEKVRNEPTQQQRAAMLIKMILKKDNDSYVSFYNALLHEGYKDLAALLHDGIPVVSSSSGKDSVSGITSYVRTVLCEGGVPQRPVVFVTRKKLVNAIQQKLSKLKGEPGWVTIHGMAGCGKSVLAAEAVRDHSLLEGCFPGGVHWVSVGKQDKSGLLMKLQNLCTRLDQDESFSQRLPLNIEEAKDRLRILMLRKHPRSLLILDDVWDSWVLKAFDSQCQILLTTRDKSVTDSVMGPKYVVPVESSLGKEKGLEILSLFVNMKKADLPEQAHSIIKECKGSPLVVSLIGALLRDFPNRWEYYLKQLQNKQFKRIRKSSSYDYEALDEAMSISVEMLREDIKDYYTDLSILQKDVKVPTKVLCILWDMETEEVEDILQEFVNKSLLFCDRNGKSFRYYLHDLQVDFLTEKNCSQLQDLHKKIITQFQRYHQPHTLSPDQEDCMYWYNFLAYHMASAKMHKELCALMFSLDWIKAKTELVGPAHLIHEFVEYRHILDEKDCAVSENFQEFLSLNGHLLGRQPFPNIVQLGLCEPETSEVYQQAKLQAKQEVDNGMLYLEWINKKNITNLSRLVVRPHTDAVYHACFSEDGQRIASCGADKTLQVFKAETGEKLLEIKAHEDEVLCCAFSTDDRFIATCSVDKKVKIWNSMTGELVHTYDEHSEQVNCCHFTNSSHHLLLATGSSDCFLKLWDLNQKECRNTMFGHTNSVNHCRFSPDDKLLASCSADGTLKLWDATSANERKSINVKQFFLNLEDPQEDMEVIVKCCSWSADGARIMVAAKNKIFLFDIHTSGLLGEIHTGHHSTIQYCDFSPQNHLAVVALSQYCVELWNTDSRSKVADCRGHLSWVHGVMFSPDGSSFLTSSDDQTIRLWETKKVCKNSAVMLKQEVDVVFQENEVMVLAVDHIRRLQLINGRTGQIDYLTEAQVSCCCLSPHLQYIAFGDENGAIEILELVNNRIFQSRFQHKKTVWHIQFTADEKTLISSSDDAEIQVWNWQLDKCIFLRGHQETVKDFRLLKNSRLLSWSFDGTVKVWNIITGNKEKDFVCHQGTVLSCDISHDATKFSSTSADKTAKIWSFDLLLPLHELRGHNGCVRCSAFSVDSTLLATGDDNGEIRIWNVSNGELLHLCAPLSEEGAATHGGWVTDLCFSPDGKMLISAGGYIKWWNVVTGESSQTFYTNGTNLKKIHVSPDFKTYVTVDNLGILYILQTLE

[8] = Luminescence Cell-Based Dose Response HTS to Identify Inhibitors of 5'UTR Stem-Loop Driven Prion Protein mRNA Translation in H4 Neuroglioblastoma Cells. [Related pubchem assays: 1827 (Project Summary), 1813 (Primary HTS)]; assay type: functional
[9] = inhibitors of SNCA 5'UTR-driven reporter translation, confirmation, H4 neuroglioma cells, luminescence (AID 1988); assay type: functional, cell-based
HEK293 = assay: inhibitors of LMP1-driven NF-kB reporter, dose response, cell-based, HEK293, luciferase, cherry-pick (AID 588343); assay type: functional; conditions: Homo sapiens
[10] = Luminescence Cell-Based Dose Retest to Confirm Inhibitors of Cancer Stem Cells. [Related pubchem assays (depositor defined):AID2717, AID2721]; assay type: functional; conditions: Homo sapiens
[11] = Shn3 3'UTR reporter inhibitors, dose response, cell-based, Clone20 osteoblasts, firefly luciferase, cherry-picked (AID 624132); assay type: functional;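 also: firefly luciferase luminescence from reporter carrying the Shn3 3'UTR in osteoblasts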
[12] = HepG2 cell cytotoxicity, dose response, cytotoxicity control for Shn3 inhibitor project, CellTiter-Glo, cherry-picked (AID 624134); assay type: functional, cell-based
[13] = control 3'UTR Renilla luciferase suppression, dose response, counter-screen for Shn3 inhibitor project, cell-based, Clone20-Shn3RL, cherry-picked (AID 624133); assay type: functional
Genome polyprotein = Genome polyprotein (dengue virus type 2, UniProt P29990); assay: Dengue-2 NS5 methyltransferase inhibitors, primary screen, biochemical, confirmation dose response (AID 588689); assay type: functional
Genome polyprotein, sequence (P29990 2492-3391 limits assumed): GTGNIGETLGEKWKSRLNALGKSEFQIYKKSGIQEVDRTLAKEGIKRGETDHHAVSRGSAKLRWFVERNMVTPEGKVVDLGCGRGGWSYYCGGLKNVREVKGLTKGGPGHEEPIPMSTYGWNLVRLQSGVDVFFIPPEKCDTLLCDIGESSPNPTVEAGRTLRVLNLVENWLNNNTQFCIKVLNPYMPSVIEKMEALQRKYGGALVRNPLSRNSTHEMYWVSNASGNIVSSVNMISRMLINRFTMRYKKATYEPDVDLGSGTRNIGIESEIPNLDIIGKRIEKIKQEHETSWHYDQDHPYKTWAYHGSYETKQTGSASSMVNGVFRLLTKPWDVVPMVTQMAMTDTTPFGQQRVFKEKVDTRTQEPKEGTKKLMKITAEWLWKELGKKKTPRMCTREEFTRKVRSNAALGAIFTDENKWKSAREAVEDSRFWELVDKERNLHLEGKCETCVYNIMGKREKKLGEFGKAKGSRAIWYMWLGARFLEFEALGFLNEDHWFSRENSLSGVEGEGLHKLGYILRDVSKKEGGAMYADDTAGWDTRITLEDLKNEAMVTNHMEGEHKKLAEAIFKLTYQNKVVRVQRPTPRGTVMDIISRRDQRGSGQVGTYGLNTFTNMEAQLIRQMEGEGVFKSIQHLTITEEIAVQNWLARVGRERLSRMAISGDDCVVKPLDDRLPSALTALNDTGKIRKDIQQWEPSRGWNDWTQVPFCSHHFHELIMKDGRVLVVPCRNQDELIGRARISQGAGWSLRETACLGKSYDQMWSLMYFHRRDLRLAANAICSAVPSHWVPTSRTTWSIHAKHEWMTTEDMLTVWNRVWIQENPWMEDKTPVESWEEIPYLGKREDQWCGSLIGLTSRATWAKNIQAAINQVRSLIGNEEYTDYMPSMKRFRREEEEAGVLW

Caspase-6 = biological target: T4, Caspase-6 (Homo sapiens, UniProt P55212); assay: human caspase-6 inhibitors, dose response, biochemical, VEID-R110 fluorescence, cherry-pick (AID 720632)
T4 sequence (P55212 whole entry): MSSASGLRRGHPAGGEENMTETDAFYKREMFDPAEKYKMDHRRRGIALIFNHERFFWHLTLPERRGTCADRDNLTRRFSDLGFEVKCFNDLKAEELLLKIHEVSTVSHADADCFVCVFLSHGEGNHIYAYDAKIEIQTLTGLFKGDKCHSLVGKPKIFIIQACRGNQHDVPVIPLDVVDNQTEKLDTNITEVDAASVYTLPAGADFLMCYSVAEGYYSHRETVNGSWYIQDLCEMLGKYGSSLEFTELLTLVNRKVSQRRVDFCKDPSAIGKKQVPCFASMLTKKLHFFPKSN

[14] = biological target: Glucose-6-phosphate 1-dehydrogenase (Homo sapiens, UniProt P11413); assay: human G6PD enzyme inhibitors, dose response, selectivity assay for P. falciparum G6PD inhibitor project, biochemical, fluorescence (AID 504792); assay type: functional
Glucose-6-phosphate 1-dehydrogenase, sequence (P11413 whole entry): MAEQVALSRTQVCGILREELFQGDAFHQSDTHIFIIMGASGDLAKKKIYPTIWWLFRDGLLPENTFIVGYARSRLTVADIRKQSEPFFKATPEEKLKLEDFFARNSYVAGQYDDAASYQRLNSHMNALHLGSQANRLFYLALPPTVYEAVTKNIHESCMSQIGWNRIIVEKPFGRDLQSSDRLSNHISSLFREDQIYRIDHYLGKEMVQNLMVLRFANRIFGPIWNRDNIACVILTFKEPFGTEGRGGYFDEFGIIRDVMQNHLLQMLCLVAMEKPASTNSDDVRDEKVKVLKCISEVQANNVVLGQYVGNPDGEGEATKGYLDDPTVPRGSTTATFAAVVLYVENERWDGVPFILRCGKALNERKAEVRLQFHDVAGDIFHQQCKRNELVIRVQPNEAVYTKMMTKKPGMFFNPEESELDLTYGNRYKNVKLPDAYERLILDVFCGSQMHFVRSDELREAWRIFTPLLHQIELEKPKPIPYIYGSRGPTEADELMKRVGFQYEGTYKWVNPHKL

O=C1NN(c2ccc(Br)cc2)C(=O)/C1=C\c1ccc(O)cc1O
EC50 [1]: > 150 µM (inconclusive) | EC50 [2]: > 38 µM (not active) | IC50 [3]: > 100 µM (active) | IC50 [4]: 159 µM (active)

CCc1ccc(OCC(=O)NNC(=S)NC(=O)C2CC2)c(Br)c1
EC50 [1]: > 150 µM (inactive) | EC50 [2]: 1.61 µM (active) | AC50 [5]: 0.978 µM (active)

Cc1ccc(S(=O)(=O)[N-]C2=C(n3cc[n+](CCC(C)C)c3)C(=O)c3ccccc3C2=O)cc1
AC50 [6]: 4.11 µM (active) | IC50 [7]: 12.2 µM (active)

Nc1cc([N+](=O)[O-])cc2oc(-c3ccccc3)cc12
IC50 [3]: > 100 µM (active)

O=C1NC(=O)/C(=C\c2ccc(OCc3cccc(C(=O)O)c3)c(Cl)c2)N1
EC50 [8]: 10.6 µM (active) | EC50 [9]: 9.49 µM (inconclusive) | AC50 (HEK293): 6.47 µM (active)

CCCSc1nnc(CSc2nc3ccccc3s2)n1-c1ccccc1
AC50 [10]: 2.8 µM (active) | AC50 [11]: 7.05 µM (active) | AC50 [12]: > 70 µM (inactive) | AC50 [13]: 22.7 µM (active)

COc1cc(/C=C2/SC(=S)N(CC(=O)O)C2=O)ccc1OC(=O)c1cccs1
IC50 (Genome polyprotein): 88.3 µM (active)

O=C(O)c1ccccc1NS(=O)(=O)c1ccc(NN=Cc2ccccc2F)c([N+](=O)[O-])c1
AC50 (Caspase-6): 19 µM (active)

Cc1ccccc1C(=O)N1CCN(c2ccc(NC(=O)c3cccs3)cc2)CC1
AC50 (HEK293): 0.788 µM (active)

CCOC(=O)c1c(C)n(-c2ccc(C)cc2)c2c(C(C(C)=O)C(=O)O)c(Br)c(O)c(O)c12 (stereo not drawn)
IC50 [14]: 26.5 µM (inactive) | IC50 [7]: 12.3 µM (active)

Cc1ccc(S(=O)(=O)Oc2ccccc2C=C2C(=O)N(C)C(=O)N(C)C2=O)cc1
IC50 (Genome polyprotein): 37.8 µM (active)
